Laboratory results taken from PMC12586182 (Frontiers in Oncology, 2025).

How the values were obtained:
PDHK2 = target: T1, PDHK2 (Homo sapiens, UniProt Q15119); experiment: Kinase panel profiling at 1 µmol/L (mobility shift assay, Carna); assay type: biochemical; settings: 1 µmol/L of BTK inhibitor
T1 construct: purchased Carna Biosciences

CK2α2/β = target: T2, CK2α2/β (Homo sapiens, UniProt P19784); experiment: as above; assay type: biochemical; settings: 1 µmol/L of BTK inhibitor
T2 construct: purchased Carna Biosciences

MARK3 = target: T3, MARK3 (Homo sapiens, UniProt P27448); experiment: as above; assay type: biochemical; settings: 1 µmol/L of BTK inhibitor
T3 construct: purchased Carna Biosciences

FLT4 = target: T4, FLT4 (Homo sapiens, UniProt P35916); experiment: as above; assay type: biochemical; settings: 1 µmol/L of BTK inhibitor
T4 construct: purchased Carna Biosciences

PASK = target: T5, PASK (Homo sapiens, UniProt Q96RG2); experiment: as above; assay type: biochemical; settings: 1 µmol/L of BTK inhibitor
T5 construct: purchased Carna Biosciences

PIM2 = target: T6, PIM2 (Homo sapiens, UniProt Q9P1W9); experiment: as above; assay type: biochemical; settings: 1 µmol/L of BTK inhibitor
T6 construct: purchased Carna Biosciences

NEK4 = target: T7, NEK4 (Homo sapiens, UniProt P51957); experiment: as above; assay type: biochemical; settings: 1 µmol/L of BTK inhibitor
T7 construct: purchased Carna Biosciences

PLK2 = target: T8, PLK2 (Homo sapiens, UniProt Q9NYY3); experiment: as above; assay type: biochemical; settings: 1 µmol/L of BTK inhibitor
T8 construct: purchased Carna Biosciences

ITK = target: T9, ITK (Homo sapiens, UniProt Q08881); experiment: as above; assay type: biochemical; settings: 1 µmol/L of BTK inhibitor
T9 construct: purchased Carna Biosciences
T9 sequence (Q08881 1-620): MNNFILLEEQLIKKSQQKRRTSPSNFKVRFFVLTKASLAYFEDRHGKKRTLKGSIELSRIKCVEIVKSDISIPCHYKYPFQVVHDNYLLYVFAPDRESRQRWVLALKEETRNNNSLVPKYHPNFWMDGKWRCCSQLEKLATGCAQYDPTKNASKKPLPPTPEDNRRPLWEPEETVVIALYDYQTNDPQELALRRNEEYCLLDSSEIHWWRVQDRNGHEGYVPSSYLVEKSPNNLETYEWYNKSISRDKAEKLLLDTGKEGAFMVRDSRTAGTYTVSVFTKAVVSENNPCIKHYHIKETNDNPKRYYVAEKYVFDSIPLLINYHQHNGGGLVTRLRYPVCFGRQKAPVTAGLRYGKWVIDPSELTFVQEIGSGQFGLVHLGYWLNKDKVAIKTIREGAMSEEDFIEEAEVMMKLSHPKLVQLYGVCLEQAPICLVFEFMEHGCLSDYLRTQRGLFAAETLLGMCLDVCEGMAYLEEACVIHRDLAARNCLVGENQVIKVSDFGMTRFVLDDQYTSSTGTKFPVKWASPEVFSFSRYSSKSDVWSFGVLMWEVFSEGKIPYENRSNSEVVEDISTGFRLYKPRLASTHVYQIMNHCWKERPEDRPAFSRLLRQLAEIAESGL

AMPKα1/β1/γ1 = target: T10, AMPKα1/β1/γ1 (Homo sapiens, UniProt Q13131); experiment: as above; assay type: biochemical; settings: 1 µmol/L of BTK inhibitor
T10 construct: purchased Carna Biosciences

PDHK4 = target: T11, PDHK4 (Homo sapiens, UniProt Q16654); experiment: as above; assay type: biochemical; settings: 1 µmol/L of BTK inhibitor
T11 construct: purchased Carna Biosciences

EPHB2 = target: T12, EPHB2 (Homo sapiens, UniProt P29323); experiment: as above; assay type: biochemical; settings: 1 µmol/L of BTK inhibitor
T12 construct: purchased Carna Biosciences
T12 sequence (P29323 19-1055): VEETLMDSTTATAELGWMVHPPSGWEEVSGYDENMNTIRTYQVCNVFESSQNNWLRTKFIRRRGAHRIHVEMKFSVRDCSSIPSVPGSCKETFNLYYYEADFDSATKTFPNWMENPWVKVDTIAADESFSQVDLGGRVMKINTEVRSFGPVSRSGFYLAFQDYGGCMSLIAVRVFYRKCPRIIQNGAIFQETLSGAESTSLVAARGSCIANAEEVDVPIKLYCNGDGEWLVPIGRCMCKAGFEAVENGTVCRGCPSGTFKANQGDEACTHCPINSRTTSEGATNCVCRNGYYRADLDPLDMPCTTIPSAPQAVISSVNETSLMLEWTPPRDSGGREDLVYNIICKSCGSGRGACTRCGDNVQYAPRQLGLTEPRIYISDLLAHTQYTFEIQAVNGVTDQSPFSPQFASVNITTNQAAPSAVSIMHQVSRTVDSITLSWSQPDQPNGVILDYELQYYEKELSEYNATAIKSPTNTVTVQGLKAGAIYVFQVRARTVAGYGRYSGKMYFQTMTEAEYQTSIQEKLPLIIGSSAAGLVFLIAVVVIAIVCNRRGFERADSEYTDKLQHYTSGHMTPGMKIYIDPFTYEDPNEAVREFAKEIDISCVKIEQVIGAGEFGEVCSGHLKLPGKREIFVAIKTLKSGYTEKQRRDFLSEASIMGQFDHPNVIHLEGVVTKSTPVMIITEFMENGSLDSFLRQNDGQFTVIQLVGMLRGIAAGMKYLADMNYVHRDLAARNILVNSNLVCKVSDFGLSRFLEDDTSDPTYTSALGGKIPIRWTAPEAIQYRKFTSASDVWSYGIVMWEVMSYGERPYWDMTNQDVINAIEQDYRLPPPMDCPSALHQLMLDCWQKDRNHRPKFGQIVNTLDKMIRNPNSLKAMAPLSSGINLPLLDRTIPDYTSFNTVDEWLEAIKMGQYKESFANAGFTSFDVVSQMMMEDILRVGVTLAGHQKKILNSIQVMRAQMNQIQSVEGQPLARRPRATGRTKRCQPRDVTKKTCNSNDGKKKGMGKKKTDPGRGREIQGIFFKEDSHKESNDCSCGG

MSSK1 = target: T13, MSSK1 (Homo sapiens, UniProt Q9UPE1); experiment: as above; assay type: biochemical; settings: 1 µmol/L of BTK inhibitor
T13 construct: purchased Carna Biosciences

MST3 = target: T14, MST3 (Homo sapiens, UniProt Q9Y6E0); experiment: as above; assay type: biochemical; settings: 1 µmol/L of BTK inhibitor
T14 construct: purchased Carna Biosciences

FGFR3 = FGFR3 (Homo sapiens, UniProt P22607); experiment: Kinase enzyme activity assay (mobility shift assay, Carna); settings: for Percentage inhibition of kinase enzyme activity: FGFR3, 1 µmol/L of BTK inhibitor
FMS = target: T15, FMS (Homo sapiens, UniProt P07333); experiment: Kinase panel profiling at 1 µmol/L (mobility shift assay, Carna); assay type: biochemical; settings: 1 µmol/L of BTK inhibitor
T15 construct: purchased Carna Biosciences

PDGFRα = PDGFRα (Homo sapiens, UniProt P16234); experiment: Kinase enzyme activity assay (mobility shift assay, Carna); settings: for Percentage inhibition of kinase enzyme activity: PDGFRα, 1 µmol/L of BTK inhibitor

T11 sequence (Q16654 whole entry): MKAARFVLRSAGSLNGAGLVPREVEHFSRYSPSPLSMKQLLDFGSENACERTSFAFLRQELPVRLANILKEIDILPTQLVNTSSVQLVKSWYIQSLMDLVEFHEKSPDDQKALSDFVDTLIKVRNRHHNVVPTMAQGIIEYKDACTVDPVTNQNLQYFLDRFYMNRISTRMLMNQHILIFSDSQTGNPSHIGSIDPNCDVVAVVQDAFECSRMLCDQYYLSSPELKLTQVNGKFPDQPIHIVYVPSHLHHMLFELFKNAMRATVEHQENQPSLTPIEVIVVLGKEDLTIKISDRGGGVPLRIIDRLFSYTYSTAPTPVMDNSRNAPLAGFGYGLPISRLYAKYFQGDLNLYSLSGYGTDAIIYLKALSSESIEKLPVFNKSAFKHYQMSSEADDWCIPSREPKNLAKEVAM
T6 sequence (Q9P1W9 whole entry): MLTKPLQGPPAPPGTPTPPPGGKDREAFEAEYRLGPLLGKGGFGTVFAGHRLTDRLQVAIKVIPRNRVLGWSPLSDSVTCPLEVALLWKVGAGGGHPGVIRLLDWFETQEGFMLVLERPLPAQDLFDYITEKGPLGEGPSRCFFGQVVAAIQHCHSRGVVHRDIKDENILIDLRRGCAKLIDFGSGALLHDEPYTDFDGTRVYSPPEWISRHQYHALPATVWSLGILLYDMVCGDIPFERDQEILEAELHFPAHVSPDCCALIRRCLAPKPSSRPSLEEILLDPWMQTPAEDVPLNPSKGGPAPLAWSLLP
T14 sequence (Q9Y6E0 whole entry): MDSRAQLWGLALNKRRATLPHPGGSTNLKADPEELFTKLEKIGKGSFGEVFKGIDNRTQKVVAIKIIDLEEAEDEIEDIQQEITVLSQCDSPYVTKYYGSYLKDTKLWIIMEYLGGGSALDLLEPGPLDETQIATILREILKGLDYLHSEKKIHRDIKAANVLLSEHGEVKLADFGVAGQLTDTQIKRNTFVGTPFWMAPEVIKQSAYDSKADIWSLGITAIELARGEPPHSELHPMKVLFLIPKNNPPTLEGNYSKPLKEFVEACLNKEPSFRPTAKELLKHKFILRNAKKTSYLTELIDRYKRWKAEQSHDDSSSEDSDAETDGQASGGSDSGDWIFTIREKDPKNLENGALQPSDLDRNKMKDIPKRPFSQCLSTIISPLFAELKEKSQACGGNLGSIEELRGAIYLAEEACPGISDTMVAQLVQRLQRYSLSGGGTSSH
Sequence of FGFR3 (P22607 23-806): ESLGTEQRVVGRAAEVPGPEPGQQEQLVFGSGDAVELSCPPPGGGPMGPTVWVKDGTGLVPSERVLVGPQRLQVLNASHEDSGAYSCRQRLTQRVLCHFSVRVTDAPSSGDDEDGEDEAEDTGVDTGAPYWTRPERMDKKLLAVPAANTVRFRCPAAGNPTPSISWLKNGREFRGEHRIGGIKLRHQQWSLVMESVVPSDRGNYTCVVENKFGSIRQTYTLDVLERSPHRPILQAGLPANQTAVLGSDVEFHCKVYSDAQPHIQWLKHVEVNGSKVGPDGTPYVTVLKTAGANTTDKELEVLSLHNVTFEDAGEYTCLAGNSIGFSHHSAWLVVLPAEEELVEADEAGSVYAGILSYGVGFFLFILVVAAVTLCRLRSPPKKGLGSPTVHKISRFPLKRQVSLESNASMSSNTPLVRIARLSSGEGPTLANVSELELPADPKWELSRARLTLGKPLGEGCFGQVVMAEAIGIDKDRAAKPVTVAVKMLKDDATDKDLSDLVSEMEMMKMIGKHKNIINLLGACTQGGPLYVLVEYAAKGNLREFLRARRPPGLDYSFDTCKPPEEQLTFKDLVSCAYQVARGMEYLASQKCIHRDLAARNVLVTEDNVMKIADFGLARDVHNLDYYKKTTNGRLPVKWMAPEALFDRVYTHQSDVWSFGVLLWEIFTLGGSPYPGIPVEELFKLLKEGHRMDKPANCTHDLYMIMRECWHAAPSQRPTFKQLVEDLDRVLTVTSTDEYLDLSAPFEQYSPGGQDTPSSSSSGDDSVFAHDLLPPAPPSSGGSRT
T7 sequence (P51957 whole entry): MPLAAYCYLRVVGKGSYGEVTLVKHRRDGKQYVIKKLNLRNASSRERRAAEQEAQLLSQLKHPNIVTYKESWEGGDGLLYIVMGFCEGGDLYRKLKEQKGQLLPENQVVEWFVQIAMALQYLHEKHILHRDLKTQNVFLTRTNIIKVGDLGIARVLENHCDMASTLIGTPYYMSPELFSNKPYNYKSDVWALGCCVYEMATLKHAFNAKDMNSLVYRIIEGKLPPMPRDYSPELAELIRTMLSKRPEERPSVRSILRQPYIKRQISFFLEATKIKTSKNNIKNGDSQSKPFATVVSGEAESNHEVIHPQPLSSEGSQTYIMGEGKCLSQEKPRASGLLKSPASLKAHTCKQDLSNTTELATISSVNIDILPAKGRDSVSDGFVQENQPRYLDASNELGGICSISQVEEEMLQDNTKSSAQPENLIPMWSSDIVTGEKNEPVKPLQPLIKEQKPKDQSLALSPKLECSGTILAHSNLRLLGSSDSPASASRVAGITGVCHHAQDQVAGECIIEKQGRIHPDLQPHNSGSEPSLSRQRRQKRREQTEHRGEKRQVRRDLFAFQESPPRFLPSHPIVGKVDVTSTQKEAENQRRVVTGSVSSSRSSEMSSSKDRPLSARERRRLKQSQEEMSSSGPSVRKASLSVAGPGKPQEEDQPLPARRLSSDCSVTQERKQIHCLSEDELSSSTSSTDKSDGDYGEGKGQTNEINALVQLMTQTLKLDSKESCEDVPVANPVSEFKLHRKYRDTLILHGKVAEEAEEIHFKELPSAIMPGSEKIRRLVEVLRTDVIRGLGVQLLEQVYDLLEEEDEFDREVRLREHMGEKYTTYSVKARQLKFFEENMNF
T15 sequence (P07333 20-972): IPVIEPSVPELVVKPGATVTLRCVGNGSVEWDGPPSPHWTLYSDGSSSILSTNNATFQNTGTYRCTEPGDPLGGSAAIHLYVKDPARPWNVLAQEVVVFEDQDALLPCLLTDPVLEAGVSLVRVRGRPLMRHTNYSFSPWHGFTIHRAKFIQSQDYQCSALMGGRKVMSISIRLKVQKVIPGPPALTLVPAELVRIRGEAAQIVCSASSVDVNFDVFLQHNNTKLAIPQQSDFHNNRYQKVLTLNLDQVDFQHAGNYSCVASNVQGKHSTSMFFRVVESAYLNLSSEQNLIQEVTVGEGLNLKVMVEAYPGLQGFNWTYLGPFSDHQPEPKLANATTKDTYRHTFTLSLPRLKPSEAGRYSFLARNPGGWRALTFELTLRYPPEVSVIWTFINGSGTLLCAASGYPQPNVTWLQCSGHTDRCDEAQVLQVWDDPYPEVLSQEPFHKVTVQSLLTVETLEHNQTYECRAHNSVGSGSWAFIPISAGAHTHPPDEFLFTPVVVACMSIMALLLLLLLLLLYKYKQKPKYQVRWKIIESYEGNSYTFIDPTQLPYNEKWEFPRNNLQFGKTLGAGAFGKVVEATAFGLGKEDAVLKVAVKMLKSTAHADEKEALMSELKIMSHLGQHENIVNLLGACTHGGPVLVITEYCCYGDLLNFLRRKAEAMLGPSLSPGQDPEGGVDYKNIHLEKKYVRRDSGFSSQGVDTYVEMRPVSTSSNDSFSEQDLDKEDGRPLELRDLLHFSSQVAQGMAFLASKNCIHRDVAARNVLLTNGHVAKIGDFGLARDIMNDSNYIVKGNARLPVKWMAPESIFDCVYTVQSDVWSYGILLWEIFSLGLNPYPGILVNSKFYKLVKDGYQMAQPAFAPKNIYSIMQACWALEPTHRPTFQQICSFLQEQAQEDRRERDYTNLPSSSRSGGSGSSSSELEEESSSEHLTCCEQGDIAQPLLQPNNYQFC
T5 sequence (Q96RG2 whole entry): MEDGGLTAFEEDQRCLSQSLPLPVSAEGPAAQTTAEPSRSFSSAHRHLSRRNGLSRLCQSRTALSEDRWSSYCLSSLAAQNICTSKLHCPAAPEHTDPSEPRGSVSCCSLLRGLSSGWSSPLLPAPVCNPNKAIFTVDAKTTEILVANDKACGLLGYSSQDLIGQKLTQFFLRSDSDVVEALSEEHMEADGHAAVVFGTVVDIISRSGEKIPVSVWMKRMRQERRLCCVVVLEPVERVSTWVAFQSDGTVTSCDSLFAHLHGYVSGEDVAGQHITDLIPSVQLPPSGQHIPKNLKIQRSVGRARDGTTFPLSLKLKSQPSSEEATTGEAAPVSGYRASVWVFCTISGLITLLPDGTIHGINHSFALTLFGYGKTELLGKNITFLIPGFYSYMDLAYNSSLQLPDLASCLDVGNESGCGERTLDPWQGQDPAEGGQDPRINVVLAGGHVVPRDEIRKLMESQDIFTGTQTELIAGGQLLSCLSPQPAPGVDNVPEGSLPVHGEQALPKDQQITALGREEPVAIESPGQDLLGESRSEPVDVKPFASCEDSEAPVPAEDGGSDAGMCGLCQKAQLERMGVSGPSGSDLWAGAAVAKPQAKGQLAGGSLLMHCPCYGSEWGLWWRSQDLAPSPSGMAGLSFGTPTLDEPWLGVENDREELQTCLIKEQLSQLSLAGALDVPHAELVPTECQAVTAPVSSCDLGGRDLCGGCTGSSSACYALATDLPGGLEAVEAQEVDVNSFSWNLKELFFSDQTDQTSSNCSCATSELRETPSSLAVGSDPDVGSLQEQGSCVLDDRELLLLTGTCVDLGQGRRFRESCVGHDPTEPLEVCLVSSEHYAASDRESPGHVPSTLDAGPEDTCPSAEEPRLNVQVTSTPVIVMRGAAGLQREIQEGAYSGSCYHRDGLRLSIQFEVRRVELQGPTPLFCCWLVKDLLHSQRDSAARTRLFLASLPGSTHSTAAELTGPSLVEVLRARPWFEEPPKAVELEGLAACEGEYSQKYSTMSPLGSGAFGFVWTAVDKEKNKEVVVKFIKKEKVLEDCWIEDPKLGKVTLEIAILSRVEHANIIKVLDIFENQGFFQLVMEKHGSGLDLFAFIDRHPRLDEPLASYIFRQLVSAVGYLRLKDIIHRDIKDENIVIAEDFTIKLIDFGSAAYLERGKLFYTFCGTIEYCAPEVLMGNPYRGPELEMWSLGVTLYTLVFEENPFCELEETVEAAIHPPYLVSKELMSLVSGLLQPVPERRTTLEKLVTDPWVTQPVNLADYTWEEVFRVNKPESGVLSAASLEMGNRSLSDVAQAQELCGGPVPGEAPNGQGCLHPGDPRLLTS

| Structure (SMILES) | Percentage inhibition of kinase enzyme activity (PDHK2) | Percentage inhibition of kinase enzyme activity (CK2α2/β) | Percentage inhibition of kinase enzyme activity (MARK3) | Percentage inhibition of kinase enzyme activity (FLT4) | Percentage inhibition of kinase enzyme activity (PASK) | Percentage inhibition of kinase enzyme activity (PIM2) | Percentage inhibition of kinase enzyme activity (NEK4) | Percentage inhibition of kinase enzyme activity (PLK2) | Percentage inhibition of kinase enzyme activity (ITK) | Percentage inhibition of kinase enzyme activity (AMPKα1/β1/γ1) | Percentage inhibition of kinase enzyme activity (PDHK4) | Percentage inhibition of kinase enzyme activity (EPHB2) | Percentage inhibition of kinase enzyme activity (MSSK1) | Percentage inhibition of kinase enzyme activity (MST3) | Percentage inhibition of kinase enzyme activity (FGFR3) | Percentage inhibition of kinase enzyme activity (FMS) | Percentage inhibition of kinase enzyme activity (PDGFRα) | IC50 (FGFR3) | IC50 (PDGFRα) |
| --- | --- | --- | --- | --- | --- | --- | --- | --- | --- | --- | --- | --- | --- | --- | --- | --- | --- | --- | --- |
| CC#CC(=O)N1CCC[C@H]1c1nc(-c2ccc(C(=O)Nc3ccccn3)cc2)c2c(N)nccn12 [acalabrutinib] | 0.16% | 9.56% | -2.57% | 1.41% | -5.37% | -16.50% | -4.76% | 2.47% | 0.87% | -4.92% | 0.39% | -0.11% | -4.86% | -2.52% | -1.31% | 7.76% | 1.38% |  |  |
| C=CC(=O)N1CCC[C@@H](n2nc(-c3ccc(Oc4ccccc4)cc3)c3c(N)ncnc32)C1 [ibrutinib] | -1.08% | -7.37% | -5.88% | 90.82% | -0.0437% | -5.09% | 4.65% | 1.72% | 93.10% |  |  | 27.83% | 1.54% | 7.79% | 81.85% | 18.52% | 94.28% |  |  |
| O=C(c1ccc(Oc2ccccc2)cc1Cl)c1c[nH]c2ncnc(N[C@@H]3CC[C@@H](CO)OC3)c12 [nemtabrutinib] | 4.18% | -3.55% | 10.97% | 90.70% | 21.76% | -5.51% | 7.11% | 3.06% | 8.66% | 12.21% | -2.73% | 48.93% | -0.95% | 60.10% | 86.25% | 101.94% | 88.08% | 70.1 nM | 12.4 nM |
| COc1ccc(F)cc1C(=O)NCc1ccc(-c2nn([C@@H](C)C(F)(F)F)c(N)c2C(N)=O)cc1 [pirtobrutinib] | 0.06% | 4.12% | 5.64% | 4.92% | 3.07% | -1.91% | -3.18% | 2.89% | 0.65% | -7.93% | 3.76% | 6.14% | -8.63% | 0.67% | 1.40% | -8.86% | 3.06% |  |  |
| C=CC(=O)N1CCC([C@@H]2CCNc3c(C(N)=O)c(-c4ccc(Oc5ccccc5)cc4)nn32)CC1 [zanubrutinib] |  |  |  | -6.85% |  |  | 0.95% |  | -2.98% |  |  | -1.32% |  |  | 6.11% | 82.03% | 3.66% |  |  |
